US4906467A, “Novel, long-duration treatment for glaucoma” (priority 1988, dated 1990)
Entries after “also recorded” stand apart in the source; their conditions may differ.

Assays:
[1] = system: corneal epithelial Na^+ -K^+ -ATPase; settings: corneal epithelium, in vitro; cited from earlier work
[2] = system: ciliary body Na^+ -K^+ -ATPase; settings: cited from earlier work
[3] = system: RABBIT INTRAOCULAR PRESSURE; assay: Effect of topical 12(R)-HETE on rabbit intraocular pressure (pneumotometer); type: in vivo; settings: for intraocular pressure, difference from baseline (mean ± SEM): n = 6
Protocol: A solution of 12(R)-HETE was prepared by dissolving 50 μg 12(R)-HETE in 1 ml ethanol and diluting to give aliquots containing 0.5 or 1.0 μg 12(R)-HETE in each of several containers. These could be frozen at -78° C. with or without ethanol. Before use, aliquots were warmed, ethanol was removed (if necessary) and sterile phosphate buffered saline (PBS) was added to give a concentration of 0.01 mg 12(R)-HETE/ml PBS. Rabbits were treated by administering 10 to 50 μl of 12(R)-HETE in PBS topically to the each eye of a 1.5 kg rabbit. Control rabbits were treated with PBS alone. Intraocular pressure was measured on a conventional pneumotometer, using a sensor size appropriate for the eye to be measured.
The pressure in each eye of the rabbits was measured several times before beginning the experiment to establish a baseline. Pressure was measured again just after administration of the test compound, then every 30 minutes for 180 minutes, daily for six days, and again on days 9 and 11. […] Table 1 illustrates the mean and standard error of the pressure difference from baseline in six animals treated with 0.5 μg 12(R)-HETE (per eye) compared with three controls, only one of which was tested after the first day.

intraocular pressure [4] = assay: Intraocular pressure after topical 12(R)-HETE (general statement); type: in vivo; settings: effective dose
Na^+ -K^+ -ATPases = settings: cited from earlier work
[5] = Ocular side effects after topical administration in vivo (corneal thickness, clarity, side effects)
[6] = rabbit, in vivo
intraocular pressure [7] = settings: cited from earlier work; for effect on intraocular pressure: in vivo
aqueous humor formation = settings: in vivo; cited from earlier work
[8] = in vivo; cited from earlier work

SMILES: CCCCCC=CC[C@@H](O)C=CC=CCC=CCCCC(=O)O [12(R)-HETE, 12(R)-hydroxy-eicosa-5,8,10,14-tetraenoic acid]
- inhibition of Na+-K+-ATPase [1]: only the R isomer exhibits a significant inhibition of enzyme activity; also recorded: inhibit Na^+ -K^+ -ATPase isolated from the ciliary body and the corneal epithelium; also recorded: inhibit Na^+ -K^+ -ATPase in the corneal epithelium in vitro
- inhibition of Na+-K+-ATPase [2]: only the R isomer exhibits a significant inhibition of enzyme activity; also recorded: inhibit Na^+ -K^+ -ATPase isolated from the ciliary body
- intraocular pressure, difference from baseline (mean ± SEM) ([3]; 0 min., 0.5 μg per eye topical): -0.6 ± 0.9 mm Hg
- onset and duration of intraocular pressure drop ([3]; 0.5 μg per eye, rabbits, Table 1): short onset, sustained pressure drop
- intraocular pressure in test animals compared with control animals ([3]; 0.5 μg per eye, vs PBS controls): significantly below the pressure in control animals at all times after administration of the test drug
- intraocular pressure, difference from baseline (mean ± SEM) ([3]; 30 min, 0.5 μg per eye topical): -3.5 ± 1.9 mm Hg
- intraocular pressure, difference from baseline (mean ± SEM) ([3]; 60 min, 0.5 μg per eye topical): -5.6 ± 1.4 mm Hg
- intraocular pressure, difference from baseline (mean ± SEM) ([3]; 90 min, 0.5 μg per eye topical): -5.6 ± 1.3 mm Hg
- intraocular pressure, difference from baseline (mean ± SEM) ([3]; 120 min, 0.5 μg per eye topical): -7.2 ± 1.6 mm Hg
- intraocular pressure, difference from baseline (mean ± SEM) ([3]; 150 min, 0.5 μg per eye topical): -4.7 ± 2.8 mm Hg
- intraocular pressure, difference from baseline (mean ± SEM) ([3]; 180 min, 0.5 μg per eye topical): -4.1 ± 2.2 mm Hg
- intraocular pressure, difference from baseline (mean ± SEM) ([3]; 2 days, 0.5 μg per eye topical): -3.2 ± 2.1 mm Hg
- intraocular pressure, difference from baseline (mean ± SEM) ([3]; 3 days, 0.5 μg per eye topical): -4.2 ± 1.2 mm Hg
- intraocular pressure, difference from baseline (mean ± SEM) ([3]; 4 days, 0.5 μg per eye topical): -4.2 ± 1.0 mm Hg
- intraocular pressure, difference from baseline (mean ± SEM) ([3]; 5 days, 0.5 μg per eye topical): -5.2 ± 2.1 mm Hg
- intraocular pressure, difference from baseline (mean ± SEM) ([3]; 6 days, 0.5 μg per eye topical): -6.0 + 1.2 mm Hg
- intraocular pressure, difference from baseline (mean ± SEM) ([3]; 9 days, 0.5 μg per eye topical): -7.4 ± 1.7 mm Hg
- intraocular pressure, difference from baseline (mean ± SEM) ([3]; 11 days, 0.5 μg per eye topical): -2.9 ± 1.5 mm Hg
- intraocular pressure, difference from baseline (mean ± SEM) ([3]; Base (before dosing), 0.5 μg per eye, baseline 25.6 mm): 0.0 ± 1.4 mm Hg
- duration of intraocular pressure decrease (intraocular pressure [4]): a decrease in intraocular pressure for a period of several days; also recorded: remains depressed for several days
- onset of intraocular pressure drop (intraocular pressure [4]): drops within a few minutes
- inhibition of Na+-K+-ATPases (Na^+ -K^+ -ATPases): inhibitor of Na^+ -K^+ -ATPases
- untoward side effects ([5]; doses up to 1 μg per eye): no untoward side effects have been observed
- corneal clarity ([5]; topical, in vivo): no loss of clarity
- corneal thickness ([5]; topical, in vivo): no increase in corneal thickness
- other observable side effects ([5]; topical, in vivo): no other observable side effects

SMILES: CCCCC/C=C\C[C@@H](O)/C=C/C=C\C/C=C\CCC[14C](=O)O [1-(^14 C)-12(R)-HETE]
- eye tissues with highest levels of 12(R)-HETE and its metabolites [6]: The highest levels were found in the cornea, ciliary bodies and trabecular meshwork

SMILES: CNCC(O)c1ccc(OC(=O)C(C)(C)C)c(OC(=O)C(C)(C)C)c1 (stereo not drawn) [dipivalyl epinephrine]
- effect on intraocular pressure (intraocular pressure [7]): reducing the intraocular pressure
- effect on production of aqueous humor (aqueous humor formation): decreases production of aqueous humor

SMILES: CC[C@@H]1C(=O)OC[C@@H]1Cc1cncn1C [Pilocarpine]
- effect on pupil size / ciliary body tone / vision [8]: pupillary constriction, spasm of accomodation
- effect on intraocular pressure (intraocular pressure [7]): a transitory rise in intraocular pressure, followed by a more persistent fall

SMILES: CC(=O)Nc1nnc(S(N)(=O)=O)s1 [acetazolamide]
- effect on intraocular pressure (intraocular pressure [7]): lowering intraocular pressure in patients with glaucoma
- effect on production of aqueous humor (aqueous humor formation): reduces the rate of aqueous humor formation

SMILES: CC(=O)OC1CN2CCC1CC2 (stereo not drawn) [Aceclidine]
- effectiveness in reducing intraocular pressure compared with pilocarpine (intraocular pressure [7]; glaucoma): approximately as effective as pilocarpine in reducing intraocular pressure

SMILES: C[C@@H]1O[C@@H](O[C@H]2C[C@@H](O)[C@]3(CO)[C@H]4[C@H](O)C[C@]5(C)[C@@H](C6=CC(=O)OC6)CC[C@]5(O)[C@@H]4CC[C@]3(O)C2)[C@H](O)[C@H](O)[C@H]1O [ouabain]
- inhibition of Na+-K+-ATPases (Na^+ -K^+ -ATPases): inhibit Na^+ -K^+ -ATPases
- side effects [8]: severe side effects including keratitis and inflammation of the cornea
- effect on intraocular pressure (intraocular pressure [7]): decrease intraocular pressure

SMILES: CC(C)(C)NC[C@H](O)COc1nsnc1N1CCOCC1 [Timolol]
- side effects [8]: The side effects are minimal, although systemic absorption of the drug can occur, leading to slowing of the heart
- duration of beneficial effect (intraocular pressure [7]; glaucoma): about 7 hours
- effect on intraocular pressure (intraocular pressure [7]): effective in reducing intraocular pressure
- effect on production of aqueous humor (aqueous humor formation): appears to act by reducing the production of aqueous humor

SMILES: CNC[C@H](O)c1ccc(O)c(O)c1 [Epinephrine]
- effect on intraocular pressure (intraocular pressure [7]): reducing the intraocular pressure
- effect on production of aqueous humor (aqueous humor formation): decreases production of aqueous humor

SMILES: CCCCCC=CC[C@H](O)C=CC=CCC=CCCCC(=O)O [12(S)-HETE, reference compound]
- inhibition of Na+-K+-ATPase [1]: only the R isomer exhibits a significant inhibition of enzyme activity
- inhibition of Na+-K+-ATPase [2]: only the R isomer exhibits a significant inhibition of enzyme activity
